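Grown in 96-well plates, cells were treated for 48 hours with each compound at five concentrations. Insufficient inhibition: endpoint recorded as highest concentration tested. At the GI50, growth is halved. The concentration for full growth arrest is given as TGI.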
Experiments:
Assay in all cases: growth of human tumour cells (NCI), 48 h
[1] = tested on: A549 NSCLC
[2] = tested on: ACHN renal
[3] = tested on: CAKI-1 renal
[4] = tested on: MALME-3M melanoma
[5] = tested on: NCI/ADR-RES ovarian
[6] = tested on: OVCAR-3 ovarian
[7] = tested on: RXF 393 renal
[8] = tested on: SK-MEL-2 melanoma
[9] = tested on: SK-OV-3 ovarian
[10] = tested on: UACC-257 melanoma

| SMILES | GI50 [1] [µM] | TGI [1] [µM] | GI50 [2] [µM] | TGI [2] [µM] | GI50 [3] [µM] | TGI [3] [µM] | GI50 [4] [µM] | TGI [4] [µM] | GI50 [5] [µM] | TGI [5] [µM] | GI50 [6] [µM] | TGI [6] [µM] | GI50 [7] [µM] | TGI [7] [µM] | GI50 [8] [µM] | TGI [8] [µM] | GI50 [9] [µM] | TGI [9] [µM] | GI50 [10] [µM] | TGI [10] [µM] |
| --- | --- | --- | --- | --- | --- | --- | --- | --- | --- | --- | --- | --- | --- | --- | --- | --- | --- | --- | --- | --- |
| CCCC1=C(C(=O)OCC)C(c2ccccc2OC)C(C#N)=C(N)O1 (centres undefined) | > 100 | > 100 | 48.1 | > 100 | 57.5 | > 100 | 27.8 | > 100 | 37.6 | > 100 | 67.1 | > 100 | 46.5 | > 100 | > 100 | > 100 | > 100 | > 100 | 65.5 | > 100 |
| CC(=O)N1CC(=O)NC1=S | – | > 100 | – | > 100 | – | > 100 | – | > 100 | – | – | – | > 100 | – | – | – | > 100 | – | > 100 | – | > 100 |
| Nc1cccc2c1C1=NNC(=O)CC1C2 (centres undefined) | – | > 100 | – | – | – | > 100 | – | > 100 | – | > 100 | – | > 100 | – | > 100 | – | > 100 | – | > 100 | – | > 100 |
| C[C@H](N[C@H]1CCC[C@]1(O)C#Cc1ccc2c(c1)OCO2)c1ccccc1 | – | > 25 | – | > 25 | – | > 25 | – | – | – | > 25 | – | – | – | > 25 | – | > 25 | – | > 25 | – | > 25 |
| COc1cc2c(cc1OC)C1Cc3cc(OC)c(OC)cc3C(C2)O1 | – | > 100 | – | > 100 | – | > 100 | – | – | – | > 100 | – | > 100 | – | > 100 | – | > 100 | – | > 100 | – | > 100 |
| COc1cc(NC(=O)CSc2nc3ccccc3c(=O)n2CCc2ccccc2)cc(OC)c1OC | – | – | – | – | – | – | 2.16 | 5.9 | 3.77 | > 100 | – | – | 1.57 | 3.69 | 2.32 | 6.94 | 1.93 | 3.69 | – | – |
| CNS(=O)(=O)c1ccc2[nH]c(O)c(C3=Nc4ccccc4C3=O)c2c1 | – | > 100 | – | > 100 | – | > 100 | – | > 100 | – | > 100 | – | > 100 | – | > 100 | – | > 100 | – | > 100 | – | > 100 |
| Cc1ccc2ccc3ccc(C)nc3c2n1 | – | > 100 | – | > 100 | – | > 100 | – | > 100 | – | > 100 | – | > 100 | – | > 100 | – | > 100 | – | > 100 | – | > 100 |
| CCOC(=O)C(=O)Nc1c(CC)cccc1C(C)CC (centres undefined) | – | > 100 | – | > 100 | – | > 100 | – | > 100 | – | – | – | > 100 | – | > 100 | – | > 100 | – | > 100 | – | > 100 |
| NC(=O)Nc1ccc(C(=O)NCCCNC(=O)c2ccc(NC(N)=O)cc2)cc1 | – | > 100 | – | > 100 | – | > 100 | – | > 100 | – | > 100 | – | – | – | > 100 | – | > 100 | – | – | – | > 100 |
| O=C(NCCNc1nccc(-c2c(-c3cccc(O)c3)nc3sccn23)n1)Nc1cccc(C(F)(F)F)c1 | 2.98 | 8.44 | 5.79 | 45.7 | 14.2 | 50.5 | 2.09 | 7.3 | 26.9 | > 100 | 5.52 | 22.7 | 2.41 | 5.1 | 2.8 | 6.07 | – | – | 2.51 | 6.94 |
| C=Cc1cc(OC)c2c(c1)c(=O)oc1c2cc(OC)c2c(O)ccc(C3OC(C)C(O)C(C)(O)C3O)c21 (centres undefined) | 0.000716 | 0.376 | – | – | 0.00224 | 0.0916 | 0.00153 | – | 0.000659 | – | 0.00181 | – | 0.000174 | – | 0.00134 | – | 0.000565 | – | – | – |

— PubChem BioAssay (NCI)
